Experimental data reported in US20170209544A1, “A PEPTIDE THERAPY TO COUNTERACT INSULIN RESISTANCE AND TYPE 2 DIABETES” (The Regents of the University of California, priority 2014, published 2017).
Where no end group is shown, it is not given here.

Columns and labels:
[1] = system: adipocytes; experiment: Leptin production in adipocytes; assay type: cell-based
From the text: Mutant PST peptides were synthesized and screened. The peptides were synthesized as various deletion peptides of PST. Native PST (SEQ ID NO. 2) inhibited insulin-stimulated glucose uptake and leptin production in adipocytes. The inventors tested various deletion mutant PST peptides whether one or more of them would compete and prevent native PST action in adipocytes.

[2] = system: peritoneal macrophages; experiment: In vitro chemotaxis assay; assay type: cell-based, mice
Method: In vitro chemotaxis assays were performed as previously described. Briefly, thioglycollate-activated peritoneal macrophages were isolated from 8 week-old male C57BL/6J mice and pretreated with the indicated concentrations of PST for 2 hours at 37° C. in serum-free RPMI. For migration analysis, 200,000 peritoneal macrophages were placed in each of the upper chamber of a 4-μm polycarbonate filter (24-transwell format; Corning, Tewksbury, Mass.), whereas compounds resuspended in serum-free RPMI at the indicated concentrations were placed in the lower chamber. After 3 hours of migration at 37° C., cells were fixed in 4% paraformaldehyde, stained with DAPI and counted under the microscope.

[3] = system: KO-DIO mice; experiment: GTT, ITT and fasting insulin in PST-treated KO-DIO mice; assay type: in vivo
Method: For glucose tolerance tests (GTT), glucose (1 mg/g) was injected intraperitoneally (IP-GTT) (at time zero) or gavaged orally (O-GTT) after a 12-hours fast. Tail-vein glucose levels were measured at −30, 0, 15, 30, 60, 90, and 120 minutes. For insulin tolerance tests (ITT), insulin (0.4 mU/g) was injected intraperitoneally and blood glucose levels were measured at the indicated time points. Chronic PST (5 μg/g/day) and PSTv1 (10 μg/day) treatments were carried out for 15 days. For acute treatment, either peptides or saline were injected 30 minutes before glucose or insulin injection. Synergy Software Kaleidagraph Version 4.0 calculated the area under the curve (AUC) for each line curve.
Despite increased obesity, KO-DIO mice maintained insulin sensitivity as shown by GTT and ITT. […] WT-DIO and KO-DIO male mice with mixed genetic background were fasted for 12 hrs and subjected to IP-GTT (2-way ANOVA: Strain, p<0.0001; Time, p<0.0001; Interaction, p<0.045; n=8, as shown in FIGS. 12A and 12B), oral GTT (2-way ANOVA: Strain, p<0.0001; Time, p<0.0001; Interaction, p=0.09; n=8, as shown in FIGS. 12C and 12D), or IP-ITT (2-way ANOVA: Treatment (WT), p<0.0001; Time, p<0.0001; Interaction, p=0.56; Treatment (KO), p<0.0001; Time, p<0.0001; Interaction, 0.43; n=9, as shown in FIGS. 12E and 12F), and AUC for glucose excursions were determined (see FIGS. 12B, 12D and 12F). […] and the corresponding AUC were shown in FIGS. 12E and 12F, respectively. Body weight-matched WT-DIO and KO-DIO mice were fasted for 12 hrs and subjected to clamp studies to determine glucose infusion rate (GIR, shown in FIG. 12G), glucose disposal rate (GDR, shown in FIG. 12H), (I) insulin-stimulated GDR (IS-GDR, shown in FIG. 12I) and % suppression of hepatic glucose production (HGP) (n=8-9, shown in FIG. 12J). Fasting (12 hrs) basal levels of plasma insulin before (FIG. 12K) and after (FIG. 12L) chronic PST treatment (5 μg/g BW/day, IP for 15 days) (n=6) were shown. “&” Indicates comparison between WT-DIO+Sal and KO-DIO+Sal, “$” indicates comparison between WT-DIO+Sal and WT-DIO+PST, “#” indicates comparison between KO-DIO+Sal and KO-DIO+PST, and “*” indicates comparison between the indicated groups. “*, $ or #”: P<0.05, “**, &&, ## or $$”: p<0.01, “***, ### or &&&”: p<0.001.

[4] = system: Chga-KO mice; experiment: Body weight of Chga-KO mice on NCD; assay type: in vivo; conditions: PST administration for 2 weeks
[5] = system: KO-DIO mice; experiment: Immunoblot of signaling in PST-treated KO-DIO mice; assay type: in vivo
Method: Tissues were homogenized in a buffer containing phosphatase and protease inhibitors. Homogenates were subjected to SDS-PAGE and immunoblotted. Primary antibodies for phosphorylated and total Akt, AMPK, FoxO1, and JNK were from Cell Signaling Technology (Beverly, Mass.). Actin and Srebp-1 antibodies were from Santa Cruz Biotechnology (CA).
Phosphorylation and activation of Akt, an important component of the insulin signaling pathway was analyzed by Western blot. […] Weight-matched saline-treated WT-DIO or KO-DIO and PST-treated KO-DIO mice were fasted for 12 hrs, injected with insulin (0.4 mU/g BW, IP) for 10 min and sacrificed for tissue collection. Tissues were homogenized, lysates were subjected to SDS-PAGE and immunoblotted for p-Akt in muscle (14A, n=4), WAT (14B, n=4) and liver (14C, n=4) and for p-AMPK in muscle (14D), WAT (14E) and liver (14F). “*” Denotes comparison between the indicated groups. “*”: P<0.05, “**”: p<0.01, “***”: p<0.001.
The insulin-stimulated phosphorylation of FoxO1, downstream of Akt (82 kDa pFoxO1 and 95 kDa pFoxO1), in KO-DIO mice was higher in WAT and the liver than corresponding insulin-treated WT-DIO tissues (FIGS. 16A and 16B). Weight-matched saline-treated WT-DIO or KO-DIO and PST-treated KO-DIO mice were fasted for 12 hrs, injected with insulin (0.4 mU/g BW, IP) for 10 min and sacrificed for tissue collection. Tissues were homogenized, lysates were subjected to SDS-PAGE and subsequently immunoblotted to detect phospho-p95-FoxO1 and phospho-p82-FoxO1 signals in WAT (16A, n=4) and phospho-p82-FoxO1 signals in liver (16B, n=4), phospho-p54-Jnk and phospho-p46-Jnk signals in WAT (16C, n=4) and liver (16D, n=4), and p125-Srebp-1 and p-68-Srebp-1 (mature) signals in liver (16E, n=4). “*” Denotes comparison between the indicated groups. “*”: P<0.05, “**”: p<0.01, “***”: p<0.001.

[6] = chronic PST 5 μg/g BW/day IP for 15 days, over WT-DIO levels

## PEGKGEQEHSQQKEEEEEMAVVPQGLFRG-amide (PEGKGEQEHSQQKEEEEEMAVVPQGLFRG-NH2) [PST, Wild-type human pancreastatin, a chromogranin A derived peptide]
[1]
  leptin production: inhibited
[2]; 10 nM PST vs 10 nM Mcp-1
  chemotaxis relative to Mcp-1: 44%
[2]; peritoneal macrophage cultures
  chemotaxis compared to saline-treated controls: significantly higher levels of chemotaxis
[3]; PST for 5 days, Chga-KO mice on high fat diet
  blood glucose: led to hyperglycemia
[3]; chronic PST 5 μg/g BW for 15 days
  insulin sensitivity phenotype on HFD: abolished
[3]; [6]
  fasting glucose: raised
  fasting plasma insulin levels: raised
[4]
  body weight: did not change
[5]; WAT
  FoxO1 signaling in WAT: modulated
  increased insulin-stimulated pFoxO1-p95 signals in WAT: reversed
[5]; liver
  hepatic AMPK, FoxO1 or Jnk signaling: did not alter
[5]; liver, compared to untreated KO-DIO
  Srebp-1c p68 to p125 ratio: decreased
[5]; muscle, WAT and liver
  AMPK signaling: did not change the overall pattern
  stimulation of Akt phosphorylation by insulin: completely inhibited
